Results reported in PMC11677724, “Preclinical Study of a Dual-Target Molecular Probe Labeled with ^68Ga Targeting SSTR2 and FAP” (Pharmaceuticals, 2024).

Assays:
[1] = Ex vivo biodistribution in NCI-H727 tumor-bearing mice; details: female, BALB/c nude, mouse, in vivo, 1.48 MBq, total radioactivity, Biodistribution
Experimental: (§1) Female BALB/c nude mice were obtained from Charles River Laboratories (Beijing, China). […] Approximately 5 × 10^6 cells were implanted into the right shoulder of each mouse to establish an NCI-H727 tumor model and Mc38 tumor model. Once the tumor volume reached 200–300 mm^3, the mice were used for imaging or biodistribution studies. All animal experiments were carried out in accordance with the National Institutes of Health Guidelines for the Care and Use of Laboratory Animals and were approved by the Animal Protection and Utilization Committee of the General Hospital of the PLA (Approval No.: S2023-209-1).
(§2) The NCI-H727 tumor-bearing mice were randomly assigned to four groups (with three mice in each group) and were injected with [^68Ga]Ga-TATE-46 (1.48 MBq, 100 µL). The mice were put to death at 0.5, 1, 2, and 4 h post-injection (p.i.). The tissues and organs of concern were gathered, weighed, and measured for radioactivity using a γ-counter. Additionally, [^68Ga]Ga-DOTA-TATE and [^68Ga]Ga-FAPI-46 were used as control groups in the biodistribution study of the NCI-H727 tumor model at 1 h p.i. After performing time decay correction, the radiotracer uptake in each tissue and organ was calculated as %ID/g.

[2] = Partition coefficient (log P), n-octanol/PBS; type: physicochemical
Experimental: In a 15 mL centrifuge tube, 2.9 mL of PBS (0.1 mol/L, pH = 7.4) and 3 mL of n-octanol were added. [^68Ga]Ga-TATE-46, [^68Ga]Ga-DOTA-TATE, or [^68Ga]Ga-FAPI-46 (14.8 MBq, 100 µL) were added to each tube. The mixture was vortexed at room temperature for 2 min to ensure thorough blending, and then centrifuged at room temperature (effective centrifuge radius 12 cm, 3000 rpm) for 5 min. After allowing sufficient time for phase separation, three 500 µL samples were taken from each layer. The radioactivity of each sample was measured using a γ-counter (count per minute, CPM), and log p = log (n-octanol CPM/water CPM) was calculated. The experiment was repeated three times.

[3] = Pharmacokinetics, blood time-activity curves, two-compartment model; type: in vivo, BALB/c mice
Experimental: Nine female healthy BALB/c mice were randomly divided into three groups (with three mice in each group) using a random number table. Each group was administered 100 µL of [^68Ga]Ga-TATE-46, [^68Ga]Ga-DOTA-TATE, or [^68Ga]Ga-FAPI-46 (0.37 MBq) via tail vein injection. Blood samples (5 µL × 3) were collected at 2, 5, 10, 15, 30, 60, 90, and 120 min post-injection via tail vein. The radioactivity in the blood was measured with a γ-counter and converted to blood radioactivity concentration (kBq/mL). The pharmacokinetic data (time–blood radioactivity concentration) were analyzed by using the two-compartment model in the pharmacokinetic software WinNonlin (Certara, Louis, MO, USA, 2018-06) to determine the distribution and clearance half-life parameters of the radiopharmaceuticals in the mice.

[4] = tested on: NCI-H727 tumor-bearing mice; assay: Ex vivo biodistribution in NCI-H727 tumor-bearing mice; details: 1 h p.i., γ-counter, mean ± SD, n=3
Experimental: as §1, §2

[5] = female healthy BALB/c mice, n = 3 per group, 0.37 MBq tail vein, blood 2-120 min, γ-counter, two-compartment model (WinNonlin)

Q: Which tissue uptake at 1 h ([1]; Blood) does the source give for `C[C@@H](O)[C@H](NC(=O)[C@@H]1CSSC[C@H](NC(=O)[C@@H](Cc2ccccc2)NC(=O)CN2CCN(CC(=O)O)CCN(CC(=O)O)CCN(CC(=O)O)CC2)C(=O)N[C@@H](Cc2ccc(O)cc2)C(=O)N[C@H](Cc2c[nH]c3ccccc23)C(=O)N[C@@H](CCCCN)C(=O)N[C@@H]([C@@H](C)O)C(=O)N1)C(=O)O` [[^68Ga]Ga-DOTA-TATE, metal not drawn, reference compound] here?
A: The tissue uptake at 1 h was 0.42 ± 0.15 %ID/g.

Q: And the tissue uptake at 1 h ([1]; Brain)?
A: The tissue uptake at 1 h was 0.03 ± 0.01 %ID/g.

Q: And the tissue uptake at 1 h ([1]; Heart)?
A: Its tissue uptake at 1 h is 0.23 ± 0.09 %ID/g.

Q: What about the tissue uptake at 1 h ([1]; Intestine) of the same molecule?
A: Its tissue uptake at 1 h is 1.48 ± 0.11 %ID/g.

Q: What about the tissue uptake at 1 h ([1]; Kidney) of the same molecule?
A: The tissue uptake at 1 h was 9.18 ± 3.65 %ID/g.

Q: And the tissue uptake at 1 h ([1]; Liver)?
A: Its tissue uptake at 1 h is 1.35 ± 0.28 %ID/g.

Q: What about the tissue uptake at 1 h ([1]; Lung) of the same molecule?
A: The tissue uptake at 1 h was 5.22 ± 0.82 %ID/g.

Q: And the tissue uptake at 1 h ([1]; Spleen)?
A: The tissue uptake at 1 h was 1.22 ± 0.11 %ID/g.

Q: What about the tissue uptake at 1 h ([1]; Stomach) of the same molecule?
A: The tissue uptake at 1 h was 7.98 ± 0.89 %ID/g.

Q: And the tissue uptake at 1 h ([1]; Tumor (tumor uptake))?
A: The tissue uptake at 1 h was 1.57 ± 0.17 %ID/g.

Q: And the logD ([2]; pH 7.4)?
A: The logD was -3.02 ± 0.08.

Q: What about the distribution half-life ([3]; mouse, in vivo) of the same molecule?
A: The distribution half-life was 1.38 min.

Q: And the elimination half-life ([3]; mouse, in vivo)?
A: The elimination half-life was 19.50 min.

Q: With `CN(CCCN1CCN(C(=O)CN2CCN(CC(=O)[O-])CCN(CC(=O)[O-])CCN(CC(=O)[O-])CC2)CC1)c1ccc2nccc(C(=O)NCC(=O)N3CC(F)(F)C[C@H]3C#N)c2c1.[68Ga+3]` [[^68Ga]Ga-FAPI-46, reference compound] as the molecule, how does the “Biodistribution, Tumor (tumor uptake)” value ([4]; NCI-H727 tumor) read?
A: Its value is 1.07 ± 0.01 %ID/g.

Q: And the “Biodistribution, Blood” value ([4]; NCI-H727 tumor-bearing mice)?
A: The value was 1.05± 0.05 %ID/g.

Q: And the “Biodistribution, Bone” value ([4]; NCI-H727 tumor-bearing mice)?
A: The value was 0.51± 0.05 %ID/g.

Q: What about the “Biodistribution, Brain” value ([4]; NCI-H727 tumor-bearing mice) of the same molecule?
A: Its value is 0.05± 0.01 %ID/g.

Q: And the “Biodistribution, Heart” value ([4]; NCI-H727 tumor-bearing mice)?
A: The value was 0.39± 0.16 %ID/g.

Q: What about the “Biodistribution, Intestine” value ([4]; NCI-H727 tumor-bearing mice) of the same molecule?
A: The value was 0.38± 0.01 %ID/g.

Q: And the “Biodistribution, Kidney” value ([4]; NCI-H727 tumor-bearing mice)?
A: Its value is 2.25± 0.12 %ID/g.

Q: And the “Biodistribution, Liver” value ([4]; NCI-H727 tumor-bearing mice)?
A: The value was 2.56± 0.95 %ID/g.

Q: What about the “Biodistribution, Lung” value ([4]; NCI-H727 tumor-bearing mice) of the same molecule?
A: Its value is 3.17± 0.79 %ID/g.

Q: What about the “Biodistribution, Muscle” value ([4]; NCI-H727 tumor-bearing mice) of the same molecule?
A: The value was 0.18± 0.02 %ID/g.

Q: What about the “Biodistribution, Spleen” value ([4]; NCI-H727 tumor-bearing mice) of the same molecule?
A: Its value is 3.75± 0.75 %ID/g.

Q: What about the “Biodistribution, Stomach” value ([4]; NCI-H727 tumor-bearing mice) of the same molecule?
A: The value was 0.38± 0.01 %ID/g.

Q: What about the Log p ([2]; shake-flask n-octanol/PBS (0.1 mol/L, pH 7.4), 14.8 MBq in 100 µL, vortexed 2 min at room temperature, centrifuged 3000 rpm 5 min, γ-counter CPM, mean ± SD, repeated three times) of the same molecule?
A: Its Log p is −3.05 ± 0.04.

Q: And the distribution half-life [3, 5]?
A: The distribution half-life was 0.64 min.

Q: And the elimination half-life [3, 5]?
A: The elimination half-life was 21.77 min.
